Consider 20 molecules from ChEMBL document CHEMBL1154291, “Synthesis and SAR of 2-phenyl-1-sulfonylaminocyclopropane carboxylates as ADAMTS-5 (Aggrecanase-2) inhibitors” (Bioorg Med Chem Lett, 2009).

The structures appear in SMILES notation.

The IC50 is the concentration needed to halve the response being measured. The term inhibition denotes the change of the read-out against control, counted positive when it falls. What is called half-life is the time needed for the level to fall by half in the phase considered. Low values mean rapid decline, high ones slow decline. One may read the bioavailability as dose-corrected exposure relative to a reference, in per cent. A higher bioavailability goes with much systemic uptake.

Sequence of Disintegrin and metalloproteinase domain-containing protein 17 (P78536 whole entry, the tested form may be a part): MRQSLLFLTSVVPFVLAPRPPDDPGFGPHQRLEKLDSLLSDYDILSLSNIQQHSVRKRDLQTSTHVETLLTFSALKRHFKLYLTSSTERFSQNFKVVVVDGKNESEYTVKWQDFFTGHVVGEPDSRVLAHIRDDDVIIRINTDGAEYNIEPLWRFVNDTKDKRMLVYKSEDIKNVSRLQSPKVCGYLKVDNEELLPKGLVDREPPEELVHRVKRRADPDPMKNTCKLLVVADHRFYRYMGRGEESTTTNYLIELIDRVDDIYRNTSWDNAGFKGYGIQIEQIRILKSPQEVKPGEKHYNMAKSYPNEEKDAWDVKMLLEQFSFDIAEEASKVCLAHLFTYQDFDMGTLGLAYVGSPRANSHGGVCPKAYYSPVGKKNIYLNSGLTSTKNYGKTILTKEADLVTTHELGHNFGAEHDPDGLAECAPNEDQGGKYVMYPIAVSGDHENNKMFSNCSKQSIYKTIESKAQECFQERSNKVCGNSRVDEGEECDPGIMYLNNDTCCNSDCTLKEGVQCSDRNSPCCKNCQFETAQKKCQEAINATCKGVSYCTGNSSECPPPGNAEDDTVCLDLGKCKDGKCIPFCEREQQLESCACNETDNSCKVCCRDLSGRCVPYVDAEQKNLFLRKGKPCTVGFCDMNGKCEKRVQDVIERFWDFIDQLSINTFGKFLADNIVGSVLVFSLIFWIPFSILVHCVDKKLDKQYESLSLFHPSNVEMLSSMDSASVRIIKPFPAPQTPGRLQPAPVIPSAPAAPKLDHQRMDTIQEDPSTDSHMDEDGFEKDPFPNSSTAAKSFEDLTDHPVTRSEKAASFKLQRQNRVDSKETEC

One data set concerns the target T1, Interstitial collagenase (Homo sapiens, UniProt P03956).
T1 sequence (P03956 whole entry): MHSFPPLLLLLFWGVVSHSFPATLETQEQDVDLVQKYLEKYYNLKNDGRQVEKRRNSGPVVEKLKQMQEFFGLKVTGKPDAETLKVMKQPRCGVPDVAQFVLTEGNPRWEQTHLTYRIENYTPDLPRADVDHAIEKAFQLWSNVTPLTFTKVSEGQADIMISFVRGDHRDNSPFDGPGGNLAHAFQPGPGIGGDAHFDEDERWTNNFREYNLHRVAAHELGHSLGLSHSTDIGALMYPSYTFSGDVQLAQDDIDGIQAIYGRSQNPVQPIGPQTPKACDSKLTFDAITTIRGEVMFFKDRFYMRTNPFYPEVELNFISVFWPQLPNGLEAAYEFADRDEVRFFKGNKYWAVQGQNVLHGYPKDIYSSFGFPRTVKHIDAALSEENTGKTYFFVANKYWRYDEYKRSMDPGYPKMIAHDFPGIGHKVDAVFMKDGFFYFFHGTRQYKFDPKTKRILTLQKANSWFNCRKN
Nature of the data set: Inhibition of MMP-1.
Conditions: not given
In turn, `C[C@@H]1[C@H](c2ccccc2)[C@]1(NS(=O)(=O)c1ccc(-n2cc(Cl)cn2)s1)C(=O)O` (racemic) yielded an IC50 of 180 nM.

The next data set concerns the target T2, A disintegrin and metalloproteinase with thrombospondin motifs 5 (Homo sapiens) (UniProt Q9UNA0).
T2 sequence (whole entry): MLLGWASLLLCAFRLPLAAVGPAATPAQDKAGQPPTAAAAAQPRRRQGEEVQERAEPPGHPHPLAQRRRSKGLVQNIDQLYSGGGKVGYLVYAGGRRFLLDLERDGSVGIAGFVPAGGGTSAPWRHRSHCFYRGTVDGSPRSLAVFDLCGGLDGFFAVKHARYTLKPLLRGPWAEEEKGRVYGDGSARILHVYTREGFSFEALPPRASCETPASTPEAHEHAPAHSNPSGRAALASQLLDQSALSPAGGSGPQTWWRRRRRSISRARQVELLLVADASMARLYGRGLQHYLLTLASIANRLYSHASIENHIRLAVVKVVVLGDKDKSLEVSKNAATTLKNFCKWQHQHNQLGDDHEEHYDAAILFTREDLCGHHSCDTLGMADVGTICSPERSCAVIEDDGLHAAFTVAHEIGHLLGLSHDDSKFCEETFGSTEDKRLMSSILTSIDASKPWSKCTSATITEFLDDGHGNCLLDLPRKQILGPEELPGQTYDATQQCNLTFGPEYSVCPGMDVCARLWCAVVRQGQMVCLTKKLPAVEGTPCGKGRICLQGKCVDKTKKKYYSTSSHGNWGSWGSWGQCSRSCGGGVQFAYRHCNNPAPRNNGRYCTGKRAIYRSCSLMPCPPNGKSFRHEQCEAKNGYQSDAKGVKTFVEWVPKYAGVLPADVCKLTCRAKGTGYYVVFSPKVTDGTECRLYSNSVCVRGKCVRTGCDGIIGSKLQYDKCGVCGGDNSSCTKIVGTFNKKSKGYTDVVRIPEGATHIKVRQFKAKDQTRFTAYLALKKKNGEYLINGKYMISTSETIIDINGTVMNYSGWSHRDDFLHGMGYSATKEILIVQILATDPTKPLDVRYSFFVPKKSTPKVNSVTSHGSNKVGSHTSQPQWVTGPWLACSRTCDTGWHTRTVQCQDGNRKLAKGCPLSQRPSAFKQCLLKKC
Nature of the data set: Inhibition of ADAMTS5 at 1 uM.
Conditions: not given
Consider `CC1(C)C[C@@]1(NS(=O)(=O)c1ccc(-n2cc(Cl)cn2)s1)C(=O)O` (racemic), for which the inhibition turned out to be 19.6%. On the same count and under the same terms, as for `O=C(O)[C@]1(NS(=O)(=O)c2ccc(-n3cc(Cl)cn3)s2)C[C@@H]1Cc1ccccc1` (racemic), the figure is 25%.

For `C[C@H]1C[C@@]1(NS(=O)(=O)c1ccc(-n2cc(Cl)cn2)s1)C(=O)O` (racemic), the inhibition amounted to 3.5%.

Turning to `O=C(O)[C@]1(NS(=O)(=O)c2ccc(-c3ccccc3Cl)s2)C[C@@H]1c1ccccc1`, the inhibition was 48%. Turning to `O=C(O)[C@]1(NS(=O)(=O)c2ccc(-n3cc(Cl)cn3)s2)CC[C@@H]1c1ccccc1` (racemic), the inhibition is -0.84%.

The next data set deals with T3, A disintegrin and metalloproteinase with thrombospondin motifs 5 (Homo sapiens, UniProt Q9UNA0).
T3 sequence (Q9UNA0 whole entry): T2 sequence (whole entry)
Nature of the data set: Inhibition of ADAMTS5.
Conditions: not given
The molecule `O=C(O)[C@]1(NS(=O)(=O)c2ccc(-c3cccc(Cl)c3)s2)C[C@@H]1c1ccccc1` had an IC50 of 94 nM. In other words, the double-digit nanomolar range. On the same count and under the same terms, as for `O=C(O)[C@]1(NS(=O)(=O)c2ccc(-c3ccc(Cl)cc3)s2)C[C@@H]1c1ccccc1`, the figure is 60 nM; as for `O=C(O)[C@]1(NS(=O)(=O)c2ccc(-c3ccc(Cl)cn3)s2)C[C@@H]1c1ccccc1`, 100 nM; as for `C[C@@H]1[C@H](c2ccccc2)[C@]1(NS(=O)(=O)c1ccc(-c2ccc(Cl)cc2)s1)C(=O)O`, 21 nM. Regarding `O=C(O)[C@]1(NS(=O)(=O)c2ccc(-c3ccc(Cl)cc3)cc2)C[C@@H]1c1ccccc1`, the midpoint of inhibition, the IC50, lay at 84 nM.

For `C[C@@H]1[C@H](c2ccccc2)[C@]1(NS(=O)(=O)c1ccc(-n2cc(Cl)cn2)s1)C(=O)O` (racemic), the midpoint of inhibition, the IC50, lay at 7.4 nM. The molecule `C[C@H]1[C@H](c2ccccc2)[C@]1(NS(=O)(=O)c1ccc(-c2ccc(Cl)cc2)s1)C(=O)O` (racemic) came in with an IC50 of 120 nM. In turn, `C[C@]1(c2ccccc2)C[C@@]1(NS(=O)(=O)c1ccc(-n2cc(Cl)cn2)s1)C(=O)O` gave an IC50 of 32 nM. The molecule `CC(C)[C@H]1C[C@@]1(NS(=O)(=O)c1ccc(-n2cc(Cl)cn2)s1)C(=O)O` (racemic) displayed an IC50 of 770 nM. Consider `C[C@]1(c2ccccc2)C[C@@]1(NS(=O)(=O)c1ccc(-c2ccc(Cl)cc2)s1)C(=O)O`, for which half-maximal inhibition (IC50) was put at 10 nM. `C[C@@H]1[C@H](C)[C@]1(NS(=O)(=O)c1ccc(-n2cc(Cl)cn2)s1)C(=O)O` returned an IC50 of 800 nM. The molecule `O=C(O)[C@]1(NS(=O)(=O)c2ccc(-n3cc(Cl)cn3)s2)C[C@@H]1C1CCCCC1` (racemic) displayed an IC50 of 360 nM.

In turn, `O=C(O)[C@]1(NS(=O)(=O)c2ccc(-n3cc(Cl)cn3)s2)C[C@@H]1c1ccccc1` gave an IC50 of 80 nM. This IC50 lies about 4.5-fold lower than the previous one.

For `O=C(O)[C@@]1(NS(=O)(=O)c2ccc(-c3ccc(Cl)cc3)cc2)C[C@H]1c1ccccc1`, the midpoint of inhibition, the IC50, lay at 210 nM.

System in the next data set: not listed separately
Nature of the data set: Half life in rat. Format: ADME, organism-based. Particulars: in vivo.
`C[C@@H]1[C@H](c2ccccc2)[C@]1(NS(=O)(=O)c1ccc(-n2cc(Cl)cn2)s1)C(=O)O` (racemic) gave a half-life of 4.5 h.

System in a further data set: not listed separately
Nature of the data set: Oral bioavailability in rat. The class given is ADME, organism-based. Particulars: in vivo.
The molecule `C[C@@H]1[C@H](c2ccccc2)[C@]1(NS(=O)(=O)c1ccc(-n2cc(Cl)cn2)s1)C(=O)O` (racemic) registered a bioavailability of 81%.

The next data set concerns the target T2, A disintegrin and metalloproteinase with thrombospondin motifs 5 (Homo sapiens). Nature of the data set: Inhibition of ADAMTS5 at 0.3 uM.
Conditions: not given
In the case of `COC(=O)c1cn(CCN([C@@]2(C(=O)O)C[C@@H]2c2ccccc2)S(=O)(=O)c2ccc(-c3ccc(Cl)cc3)cc2)cn1`, the inhibition turned out to be 18%.

Another data set addresses Disintegrin and metalloproteinase domain-containing protein 17 (Homo sapiens, UniProt P78536). Nature of the data set: Inhibition of TACE.
Conditions: not given
`C[C@@H]1[C@H](c2ccccc2)[C@]1(NS(=O)(=O)c1ccc(-n2cc(Cl)cn2)s1)C(=O)O` (racemic) gave an IC50 of 4000 nM.
